# Reference: PubChem BioAssay (NCI)
#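 How tested: cells in 96-well plates exposed to compound for 48 hours at five concentrations. At the GI50, growth is halved. TGI: concentration producing complete growth inhibition.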
# How the values were obtained:
# Experiment in all cases: NCI anticancer screen, dose series, 48 h
# 786-0 renal = tested on: 786-0 renal
# A498 renal = tested on: A498 renal
# A549 NSCLC = tested on: A549 NSCLC
# ACHN renal = tested on: ACHN renal
# BT-549 breast = tested on: BT-549 breast
# CAKI-1 renal = tested on: CAKI-1 renal
# CCRF-CEM leukemia = tested on: CCRF-CEM leukemia
# COLO 205 colon = tested on: COLO 205 colon
# DU-145 prostate = tested on: DU-145 prostate
# EKVX NSCLC = tested on: EKVX NSCLC
# HCC-2998 colon = tested on: HCC-2998 colon
# HCT-116 colon = tested on: HCT-116 colon
# HCT-15 colon = tested on: HCT-15 colon
# HL-60(TB) leukemia = tested on: HL-60(TB) leukemia
# HOP-62 NSCLC = tested on: HOP-62 NSCLC
# HS 578T breast = tested on: HS 578T breast
# HT29 colon = tested on: HT29 colon
# IGROV1 ovarian = tested on: IGROV1 ovarian
# K-562 leukemia = tested on: K-562 leukemia
# KM12 colon = tested on: KM12 colon
# LOX IMVI melanoma = tested on: LOX IMVI melanoma
# M14 melanoma = tested on: M14 melanoma
# MALME-3M melanoma = tested on: MALME-3M melanoma
# MCF7 breast = tested on: MCF7 breast
# MDA-MB-231 breast = tested on: MDA-MB-231 breast
# MDA-MB-435 = tested on: MDA-MB-435
# MDA-MB-468 breast = tested on: MDA-MB-468 breast
# MOLT-4 leukemia = tested on: MOLT-4 leukemia
# NCI-H226 lung = tested on: NCI-H226 lung
# NCI-H23 lung = tested on: NCI-H23 lung
# NCI-H460 lung = tested on: NCI-H460 lung
# NCI-H522 lung = tested on: NCI-H522 lung
# NCI/ADR-RES ovarian = tested on: NCI/ADR-RES ovarian
# OVCAR-3 ovarian = tested on: OVCAR-3 ovarian
# OVCAR-4 ovarian = tested on: OVCAR-4 ovarian
# OVCAR-5 ovarian = tested on: OVCAR-5 ovarian
# OVCAR-8 ovarian = tested on: OVCAR-8 ovarian
# PC-3 prostate = tested on: PC-3 prostate
# RPMI-8226 leukemia = tested on: RPMI-8226 leukemia
# RXF 393 renal = tested on: RXF 393 renal
# SF-268 CNS = tested on: SF-268 CNS
# SF-295 CNS = tested on: SF-295 CNS
# SF-539 CNS = tested on: SF-539 CNS
# SK-MEL-2 melanoma = tested on: SK-MEL-2 melanoma
# SK-MEL-28 melanoma = tested on: SK-MEL-28 melanoma
# SK-MEL-5 melanoma = tested on: SK-MEL-5 melanoma
# SK-OV-3 ovarian = tested on: SK-OV-3 ovarian
# SN12C renal = tested on: SN12C renal
# SNB-19 CNS = tested on: SNB-19 CNS
# SR leukemia = tested on: SR leukemia
# SW-620 colon = tested on: SW-620 colon
# TK-10 renal = tested on: TK-10 renal
# U251 CNS = tested on: U251 CNS
# UACC-257 melanoma = tested on: UACC-257 melanoma
# UACC-62 melanoma = tested on: UACC-62 melanoma
# UO-31 renal = tested on: UO-31 renal
compound,measurement,setting,value
COc1cc(OC)cc(-c2cc3ccc(N(C)C)cc3c(=O)[nH]2)c1,GI50,786-0 renal,45.1 nM
same,TGI,786-0 renal,> 63300 nM
same,GI50,A498 renal,> 100000 nM
same,TGI,A498 renal,> 100000 nM
same,GI50,A549 NSCLC,39 nM
same,TGI,A549 NSCLC,> 100000 nM
same,GI50,ACHN renal,52.2 nM
same,TGI,ACHN renal,> 100000 nM
same,GI50,BT-549 breast,38 nM
same,TGI,BT-549 breast,> 100000 nM
same,GI50,CAKI-1 renal,14.5 nM
same,TGI,CAKI-1 renal,> 100000 nM
same,GI50,CCRF-CEM leukemia,39.6 nM
same,TGI,CCRF-CEM leukemia,> 100000 nM
same,GI50,COLO 205 colon,22.3 nM
same,TGI,COLO 205 colon,58.3 nM
same,GI50,DU-145 prostate,45.6 nM
same,TGI,DU-145 prostate,> 100000 nM
same,GI50,EKVX NSCLC,58.8 nM
same,TGI,EKVX NSCLC,> 100000 nM
same,GI50,HCC-2998 colon,25.7 nM
same,TGI,HCC-2998 colon,> 100000 nM
same,GI50,HCT-116 colon,< 13.5 nM
same,TGI,HCT-116 colon,> 100000 nM
same,GI50,HCT-15 colon,< 11.6 nM
same,GI50,HL-60(TB) leukemia,< 11 nM
same,TGI,HL-60(TB) leukemia,43.4 nM
same,GI50,HOP-62 NSCLC,38 nM
same,TGI,HOP-62 NSCLC,> 100000 nM
same,GI50,HS 578T breast,25.2 nM
same,TGI,HS 578T breast,> 100000 nM
same,GI50,HT29 colon,16.4 nM
same,TGI,HT29 colon,52.9 nM
same,GI50,IGROV1 ovarian,44.6 nM
same,TGI,IGROV1 ovarian,> 100000 nM
same,GI50,K-562 leukemia,< 10 nM
same,TGI,K-562 leukemia,> 100000 nM
same,GI50,KM12 colon,31 nM
same,TGI,KM12 colon,> 100000 nM
same,GI50,LOX IMVI melanoma,19 nM
same,TGI,LOX IMVI melanoma,> 100000 nM
same,GI50,M14 melanoma,< 10.6 nM
same,TGI,M14 melanoma,> 48200 nM
same,GI50,MALME-3M melanoma,24 nM
same,TGI,MALME-3M melanoma,> 100000 nM
same,GI50,MCF7 breast,33.1 nM
same,TGI,MCF7 breast,> 100000 nM
same,GI50,MDA-MB-231 breast,30.3 nM
same,TGI,MDA-MB-231 breast,3600 nM
same,GI50,MDA-MB-435,< 10 nM
same,TGI,MDA-MB-435,14.9 nM
same,GI50,MDA-MB-468 breast,21.7 nM
same,TGI,MDA-MB-468 breast,69 nM
same,GI50,MOLT-4 leukemia,25.4 nM
same,TGI,MOLT-4 leukemia,> 100000 nM
same,GI50,NCI-H226 lung,219 nM
same,TGI,NCI-H226 lung,> 100000 nM
same,GI50,NCI-H23 lung,42.6 nM
same,TGI,NCI-H23 lung,> 100000 nM
same,GI50,NCI-H460 lung,34.1 nM
same,TGI,NCI-H460 lung,> 100000 nM
same,GI50,NCI-H522 lung,< 10 nM
same,TGI,NCI-H522 lung,47.3 nM
same,GI50,NCI/ADR-RES ovarian,< 10 nM
same,TGI,NCI/ADR-RES ovarian,33.6 nM
same,GI50,OVCAR-3 ovarian,19.1 nM
same,TGI,OVCAR-3 ovarian,37800 nM
same,GI50,OVCAR-4 ovarian,1670 nM
same,TGI,OVCAR-4 ovarian,> 100000 nM
same,GI50,OVCAR-5 ovarian,35.7 nM
same,TGI,OVCAR-5 ovarian,> 100000 nM
same,GI50,OVCAR-8 ovarian,29.8 nM
same,TGI,OVCAR-8 ovarian,187 nM
same,GI50,PC-3 prostate,40 nM
same,TGI,PC-3 prostate,> 100000 nM
same,GI50,RPMI-8226 leukemia,43.6 nM
same,TGI,RPMI-8226 leukemia,> 100000 nM
same,GI50,RXF 393 renal,15.5 nM
same,TGI,RXF 393 renal,> 100000 nM
same,GI50,SF-268 CNS,354 nM
same,TGI,SF-268 CNS,> 100000 nM
same,GI50,SF-295 CNS,< 10.6 nM
same,GI50,SF-539 CNS,11.7 nM
same,TGI,SF-539 CNS,42.6 nM
same,GI50,SK-MEL-2 melanoma,25.6 nM
same,TGI,SK-MEL-2 melanoma,> 100000 nM
same,GI50,SK-MEL-28 melanoma,42.2 nM
same,TGI,SK-MEL-28 melanoma,> 100000 nM
same,GI50,SK-MEL-5 melanoma,17.1 nM
same,TGI,SK-MEL-5 melanoma,145 nM
same,GI50,SK-OV-3 ovarian,33.5 nM
same,TGI,SK-OV-3 ovarian,> 100000 nM
same,GI50,SN12C renal,37.2 nM
same,TGI,SN12C renal,> 100000 nM
same,GI50,SNB-19 CNS,54.2 nM
same,TGI,SNB-19 CNS,> 100000 nM
same,GI50,SR leukemia,< 10 nM
same,TGI,SR leukemia,> 100000 nM
same,GI50,SW-620 colon,< 10.6 nM
same,TGI,SW-620 colon,> 100000 nM
same,GI50,TK-10 renal,> 100000 nM
same,TGI,TK-10 renal,> 100000 nM
same,GI50,U251 CNS,15.1 nM
same,TGI,U251 CNS,> 47000 nM
same,GI50,UACC-257 melanoma,> 100000 nM
same,TGI,UACC-257 melanoma,> 100000 nM
same,GI50,UACC-62 melanoma,< 10 nM
same,TGI,UACC-62 melanoma,> 100000 nM
same,GI50,UO-31 renal,52.3 nM
same,TGI,UO-31 renal,> 100000 nM
